PubChem BioAssay (NCI)
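96-well plates; 48 h exposure; 5 concentrations. Endpoints by linear interpolation between flanking doses. Not reached: highest tested concentration assigned. TGI: concentration producing complete growth inhibition.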

Experiments:
Assay in all cases: growth of human tumour cells (NCI), 48 h
IGROV1 ovarian = tested on: IGROV1 ovarian
HS 578T breast = tested on: HS 578T breast
COLO 205 colon = tested on: COLO 205 colon
MCF7 breast = tested on: MCF7 breast
NCI-H226 lung = tested on: NCI-H226 lung
TK-10 renal = tested on: TK-10 renal
MALME-3M melanoma = tested on: MALME-3M melanoma
NCI-H460 lung = tested on: NCI-H460 lung
SK-MEL-28 melanoma = tested on: SK-MEL-28 melanoma
A498 renal = tested on: A498 renal

Compound | TGI (IGROV1 ovarian) [µM] | TGI (HS 578T breast) [µM] | TGI (COLO 205 colon) [µM] | TGI (MCF7 breast) [µM] | TGI (NCI-H226 lung) [µM] | TGI (TK-10 renal) [µM] | TGI (MALME-3M melanoma) [µM] | TGI (NCI-H460 lung) [µM] | TGI (SK-MEL-28 melanoma) [µM] | TGI (A498 renal) [µM]
COc1ccc(OC)c(-c2cn3c(n2)sc2ccccc23)c1 | > 100 | > 100 | > 100 | > 100 | > 100 | > 100 | > 100 | > 100 |  | 
O=C1/C(=C/c2cccs2)N=C(c2ccccc2)N1c1nc2ccccc2s1 | > 100 | 38.9 |  | > 100 | > 100 | > 100 |  | > 100 | > 100 | > 100
Cc1cn(C2CC(SCCO)C(CO)O2)c(=O)[nH]c1=O (stereo not drawn) | > 100 |  | > 100 | > 100 | > 100 |  | > 100 | > 100 | > 100 | > 100
CC(=O)c1cc(S(=O)(=O)c2ccc(O)c(C(C)=O)c2)ccc1O | > 100 |  | > 100 | > 100 | > 100 | > 100 | > 100 | > 100 | > 100 | > 100
CCCCNC(=S)Nc1nc(C(=O)NNC(=S)NCc2ccccc2)cs1 | > 100 |  | > 100 | > 100 | > 100 | > 100 | > 100 |  |  | > 100
CCn1c(O)c(C(=O)NC(C)c2ccc([N+](=O)[O-])cc2)c(=O)n(CC)c1=S (stereo not drawn) | 11.4 | 7.42 | 3.29 | 9.19 | 11.9 | 17 |  | 9.36 | 17.6 | 
CCOC(=O)c1c(SCCN2CCCCC2)n(-c2ccccc2)c(=S)n(-c2ccccc2)c1=O |  | 80.1 | 19.9 | 18.3 | 16.9 | 31.9 | 30.3 | > 100 | 24 | 
O=C(c1ccccc1)c1ccc2nc(-c3c(Cl)c(Cl)c(Cl)c(Cl)c3C(=O)Nc3ccco3)[nH]c2c1 | > 100 |  | > 100 | > 100 | > 100 | > 100 |  | > 100 | > 100 | 92.2
c1ccc2c(c1)ccc1nc(-c3ccc4c(c3)OCO4)c3c(c12)CCC3 |  | > 100 | > 100 | > 100 | > 100 |  | > 100 | > 100 | > 100 | > 100
CC(C)(C)C(=O)O[C@H]1C=C[C@@H](O)[C@@H]2[C@H]1[C@@H]1C=C[C@H]2C1 | > 100 | > 100 | > 100 | 39.9 |  | > 100 |  | > 100 | 59.2 | 50.8
CC(=O)Nc1nc(C)c(S(=O)(=O)NC(=O)N2c3ccccc3CCc3ccccc32)s1 | > 100 | > 100 | > 100 | > 100 |  | > 100 | > 100 | > 100 | > 100 | > 100
CC1Cc2c(cc(N)nc2Br)NC1=O (stereo not drawn) | > 100 | > 100 | > 100 | > 100 | > 100 | > 100 | > 100 | > 100 | > 100 | 
